Consider one compound from patent publication US20100166727A1, “S-Adenosylmethionine And Methylthioadensosine In Chemoprevention And Treatment Of Colon Polyps And Cancer” (UNIVERSITY OF SOUTHERN CALIFORNIA, priority 2007, published 2010).

One series addresses MAT III (Rattus norvegicus, UniProt P13444). Particulars: cited from earlier work.
Series [1] is described as follows: Tolerability of oral SAMe and MTA in mice. It is filed as in vivo. Particulars: oral in drinking water, 6 days; weight gain and water consumption similar to controls. From the text: SAMe and MTA were made fresh daily. The amount of water intake, body weight, and animal behavior were closely monitored. After 6 days, animals were sacrificed, intestine was cut open along the longitudinal axis, and mucosa was stripped from the intestine (46). Mucosa was weighed and a portion processed for SAMe measurement as described below, the rest snap frozen for subsequent RNA extraction.

Series [2] deals with RKO cells. As to the kind of experiment: Apoptosis in RKO cells (HOECHST staining, Annexin V). It is filed as cell-based, human. Particulars: by 24 hrs, RKO cells. Here is the method:
Apoptosis was assessed by HOECHST staining (34). Briefly, RKO cells were grown on coverslips and treated with RNAi#1 for 24 hrs and cells were fixed with paraformaldehyde and stained with 8 μg/ml HOECHST 33258 dye for 30 min. Cells with bright, fragmented, condensed nuclei were identified as apoptotic cells using the Nikon Eclipse TE300 fluorescent microscope. At least 5 random fields (at ×300) were counted.
In these experiments the total treatment duration was limited to 16 hrs to avoid the apoptotic effect. […] Apoptosis was measured by Hoechst staining or Annexin V and propidium iodide staining on flow cytometry.

The test system of a further series is human MAT2A promoter. The experiment in a line: Luciferase activity driven by the human MAT2A promoter in HT-29 cells. The series is classed as cell-based. The conditions noted are these: SAMe 5 mM or MTA 1 mM, 6 hrs. How it is done:
The human MAT2A promoter construct[…] and GSS promoter construct −1686/−46-LUC were previously described (33, 34, 50), and subcloned in the sense orientation upstream of the luciferase coding sequence of the pGL-3 enhancer vector (Promega). Both promoter constructs contain maximal promoter activity.
To study the effect of mitogens on human MAT2A promoter activity in HT-29 cells, HT-29 cells (5×10^5 cells in 2 ml serum-free medium) were transiently transfected with 2 μg MAT2A promoter firefly luciferase gene construct or promoterless pGL3-enhancer vector (as negative control) using the Superfect Transfection Reagent (Qiagen, Valencia, Calif.) (34). To control for transfection efficiency, cells were co-transfected with the Renilla phRL-TK vector (Promega, Madison, Wis.). […] The luciferase activity driven by the MAT2A promoter construct was normalized to Renilla luciferase activity. Each experiment was done with triplicate samples.

Series [3] is described as follows: Stability of SAMe and MTA in culture medium without cells and in water. It is filed as physicochemical. The conditions noted are these: culture medium at 37° C., linear regression. Here is the method: FIG. 12. […] SAMe (A) and MTA (B) levels were measured in culture medium without cells with starting SAMe concentrations ranging from 1 to 5 mM and MTA concentration at 1 mM.
To test whether the mitogens-induce increase in. MAT2A is to provide increased SAMe necessary for polyamine synthesis in growing cells, SAMe and polyamine levels were measured following treatment of HT-29 cells with mitogens.

A further series has as its system SPD syn. As to the kind of experiment: SPD syn expression by real-time PCR in HT-29 cells. Particulars: 6 hrs. It is filed as cell-based, human. On the technique in general: In qPCR the cycle at which signal appears reflects the starting amount.
Another series deals with c-FLIP. The experiment in a line: c-FLIP mRNA level by real-time PCR in HT-29 cells. It is filed as cell-based, human. The conditions noted are these: SAMe 2 mM, MTA 1 mM, 6 hrs, mean±SE.
In a further series the test system is MAT2A. As to the kind of experiment: MAT2A mRNA levels by real-time PCR in HT-29 cells. Particulars: for MAT2A expression: 6 hr treatment, HT-29 cells. It is filed as cell-based, human. Here is the method:
HT-29 and RKO cells were obtained from the Cell Culture Core of the USC Liver Disease Research Center and grown according to instructions provided by the American Type Culture Collection (ATCC, Rockville, Md.). Prior to treatment with growth factors, SAMe or MTA, medium was changed to 0.1% FBS overnight.
RNA interference (RNAi) experiments were performed using Lipofectamine RNAiMax (Invitrogen) according to the manufacturer's instructions. Small interfering RNA (siRNA) oligonucleotides for MAT2A and scrambled siRNA were synthesized by the USC Norris Comprehensive Cancer Center Microchemical Core Laboratory, and annealed to form duplexes. Stealth RNAi for MAT2A and Stealth RNAi negative control duplexes were synthesized by Invitrogen (Carlsbad, Calif.). The following siRNA sequences were used: si-MAT2A #1, 5′-[…]-3′ (sense) and 5′-[…]-3′ (antisense); si-control with scrambled sequence (negative control siRNA having no perfect matches to known human genes), 5′-[…]dTdT-3′ (sense) and 5% […]dTdT-3′ (antisense); stealth RNAi-MAT2A #5, 5′-[…]-3′ (sense) and 5′-[…]-3′ (antisense). […]
Total RNA was isolated by the EZgeno total RNA isolation kit (Genemega, San Giego, Calif.), and subjected to reverse transcription (RT) by using M-MLV Reverse transcriptase (Invitrogen). 2 μl of RT product was subjected to quantitative real-time PCR analysis. The primers and TaqMan probes for MAT2A, MAT2β and Universal PCR Master Mix were purchased from ABI (Foster City, Calif.). Hypoxanthine phosphoribosyl-transferase 1 (HPRT1) and ubiquitin C (UBC) were used as housekeeping genes (48). The thermal profile consisted of 1 cycle at 95° C. for 15 minutes followed by 40 cycles at 95° C. for 15 seconds and at 60° C. for 1 minute. The expression of MAT2A and MAT2β was checked by normalizing the Ct of MAT2A and MAT2β to that of the control housekeeping gene (HPRT1 or UBC) (49). The delta Ct obtained was used to find the relative expression of MAT genes according to the formula: Relative expression=2·^ΔCt, where ΔCt=ΔCt of MAT genes in colon cancer or treated cells—ΔCt of MAT genes in normal colon or control cells.

Series [4] has as its system RKO cells. As to the kind of experiment: TRAIL-induced apoptosis in RKO cells (Annexin V with FACS). It is filed as cell-based, human. The conditions noted are these: 24 hours. How it is done: FIG. 28. MTA sensitizes RKO cells to TRAIL-induced apoptosis. RKO cells were treated with 1 mM MTA, […] 5-FU, or 10 ng/ml TRAIL alone or in combination for 24 hours. Apoptosis was determined by Annexin V with FACS.

A further series has as its system cFLIPL. The experiment in a line: Colonic cFLIPL mRNA in mice fed SAMe or MTA. The series is classed as in vivo. The conditions noted are these: oral, 6 days. How it is done:
FIG. 30. Effects of oral SAMe and MTA on colonic mRNA levels of MAT2A, MAT2 β, and […]. Mice were fed SAMe (150 to 450 mg/kg/d) or MTA (75 or 150 mg/kg/d) in drinking water for 6 days. Colonic mucosa was scrapped off and gene expression measured by real-time PCR.

“Also recorded” adds a separate entry of the source.

Chain of MAT III (P13444 whole entry): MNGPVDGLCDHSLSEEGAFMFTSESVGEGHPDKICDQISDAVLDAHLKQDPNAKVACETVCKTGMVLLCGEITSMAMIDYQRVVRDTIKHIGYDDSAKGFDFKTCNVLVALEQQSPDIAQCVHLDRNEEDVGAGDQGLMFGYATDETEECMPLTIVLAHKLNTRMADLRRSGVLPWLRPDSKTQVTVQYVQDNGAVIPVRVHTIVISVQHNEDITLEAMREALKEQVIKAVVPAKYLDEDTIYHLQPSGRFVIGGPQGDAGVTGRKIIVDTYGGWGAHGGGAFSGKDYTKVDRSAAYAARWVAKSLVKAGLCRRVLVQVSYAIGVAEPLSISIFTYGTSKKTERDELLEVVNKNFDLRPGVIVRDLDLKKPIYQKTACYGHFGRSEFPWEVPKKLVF

Take `C[S+](CC[C@H](N)C(=O)O)C[C@H]1O[C@@H](n2cnc3c(N)ncnc32)[C@H](O)[C@@H]1O` (stereo partly drawn) [SAMe, S-adenosylmethionine]: at MAT III (MAT III), the “Inhibition by SAMe” value is “No”. The “stimulation of MAT III” value on MAT III (at 500 μM SAMe) is reported as “up to 8 fold”. The tolerability / toxicity entry in series [1] was “well tolerated; also recorded: no apparent toxicity”. Moreover, the apoptosis result in the series with RKO cells [2] was “induced apoptosis in a dose-dependent manner”. Moreover, in the series on human MAT2A promoter, the “human MAT2A promoter activity” value is listed as “lower the promoter activity”. In addition, the “rate of conversion from SAMe to MTA” value in series [3] turned out to be 0.013 mM per hour per mM SAMe. Further, the SPD syn expression is reported as 1.1 ± 0.02 fold of control in the series on SPD syn (SAMe 2 mM) and 0.8 ± 0.02 fold of control in the series with SPD syn (SAMe 5 mM). Further, in the series on c-FLIP, the “c-FLIP mRNA level” value was 70±2 % of control. Also, the MAT2A expression in the series with MAT2A (0.5 mM SAMe) is on record as 81 % baseline; in the series on MAT2A (1 mM SAMe), 65 % baseline; in the series on MAT2A (2 mM SAMe), 55 % baseline; in the series with MAT2A (5 mM SAMe) it was 38 % of baseline. Also, in the series on MAT2A (SAMe 5 mM or MTA 1 mM, 6 hrs, HT29 cells), the “reduction of baseline expression of MAT2A” value came to 60%. Further, in the series with MAT2A (co-treatment 3 hrs), the “IGF-1-mediated induction of MAT2A on co-treatment” value is recorded as “blunted the IGF-1-mediated induction of MAT2A”. Further, in the series with MAT2A (co-treatment with leptin (6 hrs) or EGF (3 hrs)), the “leptin- or EGF-induced MAT2A expression on co-treatment” value is reported as “prevented the ability of these growth factors to induce MAT2A”. For the same compound, the TRAIL-induced apoptosis entry with RKO cells [4] was “sensitized RKO cells to TRAIL-induced apoptosis”. Besides, in the series on cFLIPL, the cFLIPL expression result was “inhibited cFLIPL expression”.
